Reference: patent US12275685B2, “Oligo-benzamide analogs and their use in cancer treatment” (Board of Regents, The University of Texas System, priority 2018, dated 2025)

Tests used:
TNBC cells with LIPA KO = assay: Response of LIPA knockout TNBC cells, CellTiter-Glo; assay type: cell-based; settings: LIPA KO clones
Source text: FIGS. 37A-J: The molecular target of ERX-41 in TNBC is LIPA. […] (FIG. 37B) Knockout clones of LIPA, ACACA, TMEM208, SOAT1 and ARID1A were generated in MDA-MB-231 cells and evaluated for response to ERX-41 using doseresponse curves using CellTiter-Glo assays in vitro. (FIGS. 37C-D) Effect of knockout of LIPA in SUM-159 (FIG. 37C) and MDA-MB436 (FIG. 37D) on dose response curve to ERX-41 using CellTiter-Glo assays in vitro. (FIGS. 37E-F) Dose response curves of SUM-159 parental cells and clones with LIPA KO to thapsigargin (FIG. 37E) and paclitaxel (FIG. 37F). (FIGS. 37G-H) Live cell imaging studies with SYTOX Green to examine ability of 1 μM ERX-41 to induce cell death in parental SUM-159 and SUM-159 clones with LIPA KO, with quantitation (FIG. 37G) and time-lapsed photomicrographs at 0 h and 30 h ((FIG. 37H). (FIGS. 37I-J) SCID mice were implanted with either parental SUM-159 or SUM-159 clones with LIPA KO (n=6, each group) and tumors were allowed to establish (150 mm^3). Following daily intraperitoneal administration of 10 mg/kg ERX-41, tumor sizes were measured and graphed (FIG. 37I), along with mice body weights (FIG. 37J). *p<0.05. **p<0.01; ***p<0.001.
The molecular target of ERX-41 in TNBC is LIPA. […] Knockout clones of LIPA, SLC5A3, SMAP2, TMEM208, SOAT1 and ARID1A were generated in multiple TNBC cells and evaluated for response to ERX-41.

TNBC cells = assay: ER stress induction in TNBC cells (electron microscopy, western blots); assay type: cell-based
Experimental: FIGS. 36A-H: ERX-41 induces ER stress in TNBC. (FIGS. 36A-C) Volcano plots show the relative effect of 4 h treatment of 1 μM ERX-41 compared to vehicle in MDA-MB-231 (FIG. 36A), BT-549 (FIG. 36B) TNBC and HMEC (FIG. 36C) cell lines. (FIG. 36D) Gene ontology analyses show the top regulated pathways. (FIG. 36E) Heatmap of the top ER stress and UPR genes in these three TNBC cell lines after 2 h and 4 h treatment with 1 μM ERX-41 treatment. […] (FIG. 36G) Time course of the effect of 1 μM ERX-41 on the mRNA expression of canonical ER stress genes, HSPAS and DDIT3 and UPR stress sensor-sXBP1 in MDA-MB-231, BT-549 and HMEC cells.
The basal level of expression of endoplasmic reticulum stress and unfolded protein response correlates with TK41 activity (FIG. 28). Modulation of the level of these stress proteins affects the activity of TK41. Thus, the basal level of expression of endoplasmic reticulum stress and unfolded protein response proteins may serve as a biomarker to predict response to TK41. […] Without wishing to be bound by any particular theory, the mechanism of action of TK41 may operate comprise targeting either ER or TLX and inducing endoplasmic reticulum stress, subsequent apoptosis, and blocking autophagic fusion (FIG. 30).
ERX-41 induces endoplasmic reticulum stress in TNBC. To understand the mechanism of action of ERX-41 in TNBC, the inventors performed unbiased RNA sequencing studies in three TNBC (SUM-159, MDA-MB-231, and BT549) and normal HMEC cell lines (FIGS. 36A-C). […] Heatmaps show the induction of ER stress and UPR genes in these three TNBC cell lines (FIG. 36E). Evaluation of ER stress induction was then performed with ultrastructural studies using electron microscopy (EM) studies.

[1] = test system: MDA-MB-231 TNBC xenografts; assay: MDA-MB-231 TNBC xenografts; assay type: in vivo, mice; settings: oral 10 mg/kg/day
Experimental: FIGS. 5A-5C show the effect of TK41 on triple negative breast cancer xenograft tumors. MDA-MB-231 (TNBC; n=10) xenografts were established in nude mice and treated with either vehicle (circle markers) or 10 mg/kg/day TK41 (square markers) administered as an oral gavage in Captisol®. Comparison of mice body weights is shown in bar graphs (FIG. 5A). Photographs of individual tumors at necropsy supports the effect of TK41 on TNBC. *p<0.05; **** p<0.001.
FIGS. 35A-P: ERX-41 is potent against TNBC in vivo. (FIG. 35A) Following establishment of subcutaneous MDA-MB-231 xenograft tumors (200 mm^3), 10 mg/kg single dose ERX-41 was administered either by oral or intraperitoneal route. The tumor was harvested 0, 0, 5, 1, 5, 3, 6 and 24 h after drug administration and the drug levels assayed by LC-MS/MS and graphed. (FIGS. 35B-E) Following establishment of MDA-MB-231 xenografts in mammary fat pad in vivo (100 mm^3 size), daily administration of 10 mg/kg ERX-41 or vehicle control (N=8 each group) was initiated. Tumor volumes were measured using digital calipers and graphed (FIG. 35B). Tumor weights (FIG. 35C), body weights (FIG. 35D) and extirpated tumors (FIG. 35E) at end of study are also shown. […] Tumor volumes were measured using digital calipers and graphed (FIG. 35F) along with tumor weights (FIG. 35G) and body weights (FIG. 35H). […]

`CC(C)COc1cc(C(=O)Nc2ccc(C(=O)N[C@H]3CC[C@H](C)CC3)cc2OCC(C)C)ccc1NC(=O)c1ccc([N+](=O)[O-])c(OCCO)c1` [TK41] was tested, and the “cytotoxic response after knockout of LIPA” value (TNBC cells with LIPA KO) was “abrogate the cytotoxic response”, the “induction of ER stress and UPR proteins (p-PERK, IRE1a, eiF2a, CHOP)” value (TNBC cells; 1 μM, western blotting, TNBC cells) was “induces ER stress and downstream UPR pathways” and the “induction of endoplasmic reticulum stress” value (TNBC cells; TNBC MD-MBA-231 cells) was “induce endoplasmic reticulum stress”. The “dilation of the ER by electron microscopy” value (TNBC cells; within 4 h of treatment, TNBC cells) was “induced dramatic dilation of the ER”, the “growth of MDA-MB-231 xenografts” value [1] was “significantly decreased the growth” and the mouse body weights [1] was “no alterations in mouse body weights”.
